Experimental findings from paper PMC5209882, “The Coptotermes gestroi aldo–keto reductase: a multipurpose enzyme for biorefinery applications” (Biotechnology for Biofuels, 2017) are described below.

The target of data set [1] is T1, CgAKR-1 (Coptotermes gestroi, UniProt A0A140CVV2).
T1 construct: full-length ORF of 334 residues, N-terminal 6xHis tag (pET-28a, NheI/BamHI), E. coli ArcticExpress (DE3); Ni and size exclusion purified
T1 sequence (A0A140CVV2 1-334): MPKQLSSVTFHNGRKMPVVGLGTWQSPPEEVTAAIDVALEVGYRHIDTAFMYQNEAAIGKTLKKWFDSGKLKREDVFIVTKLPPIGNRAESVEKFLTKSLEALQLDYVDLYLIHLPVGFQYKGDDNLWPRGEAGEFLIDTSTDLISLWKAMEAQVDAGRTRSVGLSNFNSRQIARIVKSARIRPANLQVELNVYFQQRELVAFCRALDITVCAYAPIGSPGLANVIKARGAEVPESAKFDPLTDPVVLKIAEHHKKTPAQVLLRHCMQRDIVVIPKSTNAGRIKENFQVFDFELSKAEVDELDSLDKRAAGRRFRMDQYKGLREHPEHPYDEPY
Put plainly: X-ray crystal structure. Particulars: cofactor-binding site; complex described in text, ligand state not stated explicitly.

Data set [2] deals with T1, CgAKR-1. Put plainly: NADPH oxidation at […] nm, varied NADPH. Format: biochemical. Particulars: 5 mM 2-nitrobenzaldehyde; 50 mM sodium phosphate pH 7.0 (standard assay), 30 °C; Kd apparently from kinetics.
Substrate in the data set “purified protein”: O=Cc1ccccc1[N+](=O)[O-]
The experiment in a line: purified protein. Format: biochemical, Coptotermes gestroi. Particulars: 0.2 mM NADPH, 50 mM sodium phosphate pH 7.0 (standard assay), 30 °C.

What is called Km is the concentration of substrate that gives half-maximal velocity. Usually kcat stands for the number of substrate molecules converted per active site and unit of time at saturation.

Take `NC(=O)c1ccc[n+]([C@@H]2O[C@H](COP(=O)(O)OP(=O)(O)OC[C@H]3O[C@@H](n4cnc5c(N)ncnc54)[C@H](OP(=O)(O)O)[C@@H]3O)[C@@H](O)[C@H]2O)c1` [NADP]: the X-ray crystal structure result on CgAKR-1 [1] is “the pocket was mainly delimited by the cofactor (NADP) and nine amino acids”.

With `NC(=O)C1=CN([C@@H]2O[C@H](COP(=O)(O)OP(=O)(O)OC[C@H]3O[C@@H](n4cnc5c(N)ncnc54)[C@H](OP(=O)(O)O)[C@@H]3O)[C@@H](O)[C@H]2O)C=CC1` [NADPH], on CgAKR-1 [2], the Kd turned out to be 60 µM.

B1: CgAKR-1 (Coptotermes gestroi) (protein)
chain: MPKQLSSVTFHNGRKMPVVGLGTWQSPPEEVTAAIDVALEVGYRHIDTAFMYQNEAAIGKTLKKWFDSGKLKREDVFIVTKLPPIGNRAESVEKFLTKSLEALQLDYVDLYLIHLPVGFQYKGDDNLWPRGEAGEFLIDTSTDLISLWKAMEAQVDAGRTRSVGLSNFNSRQIARIVKSARIRPANLQVELNVYFQQRELVAFCRALDITVCAYAPIGSPGLANVIKARGAEVPESAKFDPLTDPVVLKIAEHHKKTPAQVLLRHCMQRDIVVIPKSTNAGRIKENFQVFDFELSKAEVDELDSLDKRAAGRRFRMDQYKGLREHPEHPYDEPY
notes: full-length ORF of 334 residues, N-terminal 6xHis tag (pET-28a, NheI/BamHI), E. coli ArcticExpress (DE3); Ni and size exclusion purified
Consider B1, for which, in “purified protein”, the Km came to 150 µM and the kcat turned out to be 7.5 s⁻¹.
